In patent US20250170281A1, “ANTI-CANCER TREATMENT WITH A RADIOACTIVE PARP INHIBITOR” (The Chancellor, Masters and Scholars of the University of …, priority 2022, published 2025):
Entries after “also recorded” stand apart in the source; their conditions may differ.

Key:
AsPC1 cells [1] = assay: In vitro uptake and specificity of [123I]CC1; format: cell-based; conditions: for uptake of [123I]CC1 on addition of cold blocker: AsPC1, blocker 100 μM, 45 min before tracer
Experimental: (§1) AsPC1 (1×10^5 cells/well), PSN1 cells (7.5×10^4 cells/well) or U87MG (1×10^5 cells/well) were seeded separately in 24-well plates containing growth medium and allowed to adhere for at least 20 h. Cells were washed and exposed to cold, unlabelled PARP inhibitors (100 μM, in a total of 270 μL growth medium) for 45 min at 37° C. […] Cell culture medium was removed, and cells washed with PBS. Cells were lysed using RIPA buffer ([…] Tris pH 8.0, 1% NP40, 0.5% sodium deoxycholate, 0.1% sodium dodecyl sulphate, and 150 mM sodium chloride) for 15 min at room temperature, and the amount of ^123I in cell lysates was measured using an automated gamma counter (PerkinElmer). […] The amount of ^123I in cell lysates was measured as above.
(§2) AsPC1 (1×10^5 cells/well), PSN1 (7.5×10^4 cells/well) or U87MG (1×10^5 cells/well) were seeded as described in part A hereinbefore. CAPAN-1 cells (7.5×10^4 cells/well) were seeded following the same protocol described in part A hereinbefore.

PSN1 cells [2] = assay: In vitro uptake and specificity of [123I]CC1; format: cell-based; conditions: for uptake of [123I]CC1 on addition of cold blocker: PSN1, blocker 100 μM, 45 min before tracer
Experimental: as §1, §2

U87MG cells [3] = assay: In vitro uptake and specificity of [123I]CC1; format: cell-based, Human; conditions: for uptake of [123I]CC1 on addition of cold blocker: blocker 100 μM, 45 min before tracer
Experimental: as §1, §2

PSN1 cells [4] = assay: Colony formation assay; format: cell-based; conditions: for effect on clonogenic survival: PSN1, cold compounds at amounts equivalent to [123I]CC1
Experimental: (§3) Separate aliquots of cells were irradiated (0-10 Gy, using a ^137Cs irradiator, 0.8 Gy/min). Cells were then washed, a fraction of which was then transferred to 6-well plates containing 2 mL of growth medium, and colony formation was measured two weeks after treatment. Colony numbers were normalized to the number of cells transferred to the plates to obtain plating efficiency, which was in turn normalized to that of untreated cells.
(§4) Following the protocol outlined in part A hereinbefore, colony formation assays were conducted on aliquots of PSN1, U87MG and MDA-MB-231 cells.

U87MG cells [5] = assay: Colony formation assay; format: cell-based, Human; conditions: for effect on clonogenic survival: cold compounds at amounts equivalent to [123I]CC1
Experimental: as §3, §4

PARP6 = PARP6 (Homo sapiens, UniProt Q2NL67); assay: PARP family enzymatic activity screening at 10 nM (BPS assay kits); conditions: lesser degree than olaparib, rucaparib and other established PARP inhibitors
Chain of PARP6 (Q2NL67 whole entry): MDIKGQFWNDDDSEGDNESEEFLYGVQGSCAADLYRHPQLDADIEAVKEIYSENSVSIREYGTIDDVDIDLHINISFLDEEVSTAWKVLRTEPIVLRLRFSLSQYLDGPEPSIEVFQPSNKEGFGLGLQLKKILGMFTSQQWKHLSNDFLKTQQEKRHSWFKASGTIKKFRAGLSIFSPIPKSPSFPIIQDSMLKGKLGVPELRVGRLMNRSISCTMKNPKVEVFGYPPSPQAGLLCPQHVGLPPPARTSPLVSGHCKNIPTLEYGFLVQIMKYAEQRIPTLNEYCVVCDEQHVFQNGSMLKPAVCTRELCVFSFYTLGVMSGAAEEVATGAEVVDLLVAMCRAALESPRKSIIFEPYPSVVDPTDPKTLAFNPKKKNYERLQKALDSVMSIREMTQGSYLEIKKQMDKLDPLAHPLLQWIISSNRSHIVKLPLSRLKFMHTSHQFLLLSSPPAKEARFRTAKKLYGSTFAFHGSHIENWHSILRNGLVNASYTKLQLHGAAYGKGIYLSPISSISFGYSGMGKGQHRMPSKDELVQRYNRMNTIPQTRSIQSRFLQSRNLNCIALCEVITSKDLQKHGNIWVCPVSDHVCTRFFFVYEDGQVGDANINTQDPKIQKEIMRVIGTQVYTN

AsPC1 cells [6] = assay: Flow cytometry of nuclear protein expression post [123I]CC1 treatment; format: cell-based; conditions: 50 kBq
Experimental: (§5) AsPC1, PSN1 or U87MG (1×10^6 cells/well in 2 mL growth medium) were seeded in 6-well plates and allowed to adhere for at least 20 h. […] Cells were harvested using trypsin-EDTA solution and washed with FACS buffer (PBS, 2% FBS, 1 mM EDTA, 0.1% NaN3) and centrifuged at 500×g for 5 min. Immunostaining was performed using the Foxp3/transcription factor staining buffer set (eBioscience™, USA). Intracellular staining was conducted in permeabilization buffer for 30 min at 4° C. in the dark using the following antibodies separately: AF488-conjugated anti-PARP-1 (1:100; sc-80070), AF594-conjugated anti-PARP-2 (1:100; sc-393310) and AF488-conjugated anti-PARP-3 (1:100; sc-390771) from Santa Cruz Biotechnology Inc. (USA), AF488-conjugated anti-IMPDH2 (1:500; ab-200770) from Abcam plc. (UK), yH2AX (1:1000; JBW301 Merck-Millipore). Fixable viability dye ef780 (1:4000; eBioscience™; 65-0865-14) was used for live/dead discrimination. Fixation of immunostained cells was performed for 15 min at RT. Flow cytometry was conducted using a CytoFLEX flow cytometer (Beckman Coulter, USA), with appropriate laser and filters, positive and negative controls. Data were analyzed using FlowJo™ (Tree Star Inc., BD Biosciences, USA).
(§6) Quantification of AsPC1, PSN1 or U87MG cells was conducted following the protocol outlined in part A hereinbefore. Relative expression of PARP1 and 2 was measured using flow cytometry. γH2AX expression, as a measure for DNA double strand break damage, was assessed in a similar manner.

PSN1 cells [7] = assay: as above; format: cell-based; conditions: PSN1, 24 h after 1-hour exposure, 50 kBq
Experimental: as §5, §6

U87MG cells [8] = assay: as above; format: cell-based, Human; conditions: 24 h after 1-hour exposure, 50 kBq
Experimental: as §5, §6

PSN1 xenografts [9] = assay: Biodistribution of [123I]CC1 in xenograft-bearing mice; format: in vivo; conditions: for tumour uptake: 1 h after i.v. 3 MBq
Experimental: PSN1 cells were harvested using trypsin, washed twice with PBS, and reconstituted in PBS: Matrigel® Matrix High Concentration (1:1). Cell suspensions (PSN1: 2×10^6 […]) were injected subcutaneously in the front right flank of the mice, and allowed to grow to a size of approximately 200 mm^3.
To evaluate the specificity of tumour uptake, an excess of unlabelled rucaparib (0.5 mg) was co-administered as blocking agent. Either after 60 or 120 min after radiolabelled compound injection, animals were euthanised. Selected organs, tissues and blood were removed, and the percentage of the injected dose per gram of tissue (% ID/g) was determined, using a HIDEX automated gammacounter.
(§7) Following the protocol described in part A hereinbefore, PSN1, U87MG, or MDA-MB-231 cells were harvested using trypsin, washed twice with PBS, and reconstituted in PBS: Matrigel® Matrix High Concentration (1:1). Cell suspensions were injected subcutaneously in the hind right flank and allowed to form tumours. […] To evaluate the specificity of tumour uptake, an excess of unlabelled rucaparib (0.5 mg) was co-administered as a blocking agent in some animals. Either 60 or 120 min after radiolabelled compound injection, animals were euthanised (n=3 per group). Selected organs, tissues and blood were removed, and the percentage of the injected activity per gram of tissue (% IA/g) was determined, using a HIDEX automated gammacounter.

MDA-MB-231 xenografts [10] = assay: as above; format: in vivo; conditions: 2 h after i.v. 3 MBq
Experimental: as §7

U87MG xenografts [11] = assay: as above; format: in vivo; conditions: 2 h after i.v. 3 MBq
Experimental: as §7

[12] = Blood clearance by VOI analysis of dynamic imaging; format: in vivo; conditions: PSN1 xenograft-bearing mice, i.v. 3 MBq; CI95 1.64-2.09 min
Experimental: Images were analysed using VOI-based analysis, using PMOD.
In a selected number of animals (n=3), animals were anaesthetised using 2% isoflurane, and dynamic SPECT/CT imaging was performed over 1 h, using a MILabs VECTor4 camera, equipped with an ultra-high-resolution rat/mouse collimator (1.8 mm), followed by a cone-beam CT scan (55 kV, 0.19 mA) for anatomical reference and attenuation correction. Anesthesia was maintained using 2.5% isoflurane throughout the duration of image acquisition. SPECT images were reconstructed using U-SPECT-Rec3.22 software (MILabs, Utrecht, The Netherlands), applying a pixel-based algorithm, ordered subset expectation maximisation (OSEM) with 4 subsets, 4 iterations and 0.6 mm voxel size for lodine-123 (energy window settings 141.3-172.7 keV). Reconstructed SPECT and CT images were viewed and analyzed using PMOD v.3.37 (PMOD Technologies, Zurich, Switzerland).

PSN1 xenografts [13] = assay: In vivo therapy study; conditions: single i.v. 3 MBq
Experimental: […]. Mice and tumour sizes were monitored daily. Study endpoint was determined based humane endpoints, including a tumour size >1200 mm^3, or weight loss >15%.
[…]. Mice were monitored daily. Tumour sizes were determined by calliper. Study endpoints were based on humane endpoints, including a tumour size >1000 mm^3, or weight loss >15%.

MDA-MB-231 xenografts [14] = assay: In vivo therapy study; parameters: species or system mice; conditions: single i.v. 3 MBq
Experimental: (§8) Mice were monitored daily. Tumour sizes were determined by calliper. Study endpoints were based on humane endpoints, including a tumour size >1000 mm^3, or weight loss >15%.

U87MG xenografts [15] = assay: In vivo therapy study; parameters: species or system mice; conditions: single i.v. 3 MBq
Experimental: as §8

[16] = Toxicology: H&E staining of normal tissues; format: in vivo, C57/Bl6 mice; conditions: 3 MBq i.v.
Description: Liver, spleen, kidneys and intestines were investigated by an experienced veterinary pathologist and compared to age-matched non-treated control animals.
Tissues were further stained for γH2AX to investigate DNA double strand break damage, and livers were additionally stained for PAS, as a marker for glycogen storage.

[17] = AsPC1, 24 h after 1-hour exposure

## O=c1c(-c2ccc(O)cc2)coc2cc(O[C@@H]3O[C@H](CO)[C@@H](O)[C@H](O)[C@H]3O)ccc12 [daidzin, reference compound]
AsPC1 cells [1]
  uptake of [123I]CC1 on addition of cold blocker: reduced
PSN1 cells [2]
  uptake of [123I]CC1 on addition of cold blocker: reduced
U87MG cells [3]
  uptake of [123I]CC1 on addition of cold blocker: reduced

## COc1c(C)c2c(c(O)c1C/C=C(\C)CCC(=O)OCCN1CCOCC1)C(=O)OC2 [m.mofetil, Mycophenolate mofetil, reference compound]
AsPC1 cells [1]
  uptake of [123I]CC1 on addition of cold blocker: reduced
PSN1 cells [2]
  uptake of [123I]CC1 on addition of cold blocker: reduced
U87MG cells [3]
  uptake of [123I]CC1 on addition of cold blocker: reduced

## O=C(c1cc(Cc2n[nH]c(=O)c3ccccc23)ccc1[123I])N1CCN(C(=O)C2CC2)CC1 [CC1]
PSN1 cells [4]
  effect on clonogenic survival: no effect
U87MG cells [5]
  effect on clonogenic survival: no effect
PARP6
  inhibition of PARP6 catalytic activity by a single dose: able to inhibit

## O=C(c1cc(Cc2n[nH]c(=O)c3ccccc23)ccc1F)N1CCN(C(=O)C2CC2)CC1 [olaparib, reference compound]
PSN1 cells [4]
  effect on clonogenic survival: no effect
U87MG cells [5]
  effect on clonogenic survival: no effect

## O=C(c1cc(Cc2n[nH]c(=O)c3ccccc23)ccc1[123I])N1CCN(C(=O)C2CC2)CC1 [[^123I]CC1]
AsPC1 cells [1]; AsPC1, 37° C.
  time at which cell uptake plateaus: 1 h
AsPC1 cells [1]; AsPC1, Part B
  cell uptake: around 0.3 fmol/cell
PSN1 cells [2]; PSN1, 37° C.
  time at which cell uptake plateaus: 1 h
PSN1 cells [2]; PSN1, Part B
  cell uptake: around 0.3 fmol/cell
U87MG cells [3]; 37° C.
  time at which cell uptake plateaus: 1 h
U87MG cells [3]; Part B
  cell uptake: around 0.3 fmol/cell
PSN1 cells [4]; PSN1, 60 min exposure
  clonogenic survival IC50: 1 kBq/mL
PSN1 cells [4]
  effect on clonogenic survival: far less pronounced
U87MG cells [5]; 1 h exposure
  amount from which clonogenic survival is significantly reduced: ≥ 10 Bq
U87MG cells [5]; in 200 μl, 60 min exposure
  clonogenic survival IC50: 631±35 Bq
AsPC1 cells [6]; [17]
  PARP1 expression: increased expression
  PARP2 expression: increased expression
AsPC1 cells [6]; AsPC1, 24 h after exposure
  γH2AX expression (DNA double strand breaks): increased significantly
PSN1 cells [7]
  PARP1 expression: increased expression
  PARP2 expression: increased expression
  γH2AX expression (DNA double strand breaks): increased significantly; also recorded: increased markedly
U87MG cells [8]
  PARP1 expression: increased expression
  PARP2 expression: increased expression
  γH2AX expression (DNA double strand breaks): increased significantly; also recorded: increased markedly
PSN1 xenografts [9]; PSN1 xenograft-bearing mice, 3 MBq, 20 GBq/μmol
  clearance pattern (high uptake in liver and intestines): hepatobiliary clearance pattern
PSN1 xenografts [9]; PSN-1 xenografts, Part A
  tumour uptake: 0.9±0.06 % ID/g
PSN1 xenografts [9]; PSN-1 xenografts, Part B
  tumour uptake: 0.9±0.06 % IA/g
PSN1 xenografts [9]; PSN-1 xenografts, 24 h after injection
  amount remaining in tumour: 0.033±0.017 % IA/g
MDA-MB-231 xenografts [10]
  tumour uptake: 0.19±0.01 % IA/g
U87MG xenografts [11]
  tumour uptake: 0.46±0.01 % IA/g
[12]
  blood clearance, weighed half-life: 1.86 min
PSN1 xenografts [13]; PSN1 xenografts, vs cold unlabelled CC1, p=0.04
  tumour growth: significant inhibition of tumour growth
PSN1 xenografts [13]
  gross toxicity (weight loss of the mice): without signs of gross toxicity
MDA-MB-231 xenografts [14]
  tumour growth response: not affected in their growth
U87MG xenografts [15]
  tumour growth response: responded less than PSN-1 xenografts
[16]
  shrunken (pyknotic) hepatocytes in liver: 0.1-0.2 per field
[16]; 24 h and 28 days
  histopathology, intestines: minimal proprial infiltration by lymphocytes and plasma cells
  histopathology, kidneys: no observable changes
  histopathology, liver: the one marked effect: diffuse cytoplasmic pallor/rarefaction
  histopathology, spleen: mild to moderate numbers of hemosiderophages

## CNCc1ccc(-c2[nH]c3cc(F)cc4c3c2CCNC4=O)cc1 [rucaparib, reference compound]
PSN1 xenografts [9]; PSN1 xenografts, 0.5 mg blocker, 2 h, P<0.05
  tumour uptake of [123I]CC1 on co-administration of excess blocker: significantly reduced tumour uptake
